Results from ChEMBL document CHEMBL4706524, “Discovery of sulfonyl hydrazone derivative as a new selective PDE4A and PDE4D inhibitor by lead-optimization approach on the prototype LASSBio-448: In vitro and in vivo preclinical studies” (Eur J Med Chem, 2020).

How the values were obtained:
Homo sapiens [1] = organism: Homo sapiens; assay: Inhibition of human recombinant PDE4A1A using FAM-cAMP as substrate at 10 uM measured after 1 hr by IMAP TR-FRET assay
[2] = Chemical stability of the compound in phosphate buffer at pH 7.4 measured upto 120 mins by HPLC-DAD analysis; format: physicochemical; settings: pH 7.4, 2 h
[3] = target: 3',5'-cyclic-AMP phosphodiesterase 4C (Homo sapiens, UniProt Q08493); assay: Inhibition of human recombinant PDE4C using FAM-cAMP as substrate at 10 uM measured after 1 hr by IMAP TR-FRET assay
Chain of 3',5'-cyclic-AMP phosphodiesterase 4C (Q08493 whole entry): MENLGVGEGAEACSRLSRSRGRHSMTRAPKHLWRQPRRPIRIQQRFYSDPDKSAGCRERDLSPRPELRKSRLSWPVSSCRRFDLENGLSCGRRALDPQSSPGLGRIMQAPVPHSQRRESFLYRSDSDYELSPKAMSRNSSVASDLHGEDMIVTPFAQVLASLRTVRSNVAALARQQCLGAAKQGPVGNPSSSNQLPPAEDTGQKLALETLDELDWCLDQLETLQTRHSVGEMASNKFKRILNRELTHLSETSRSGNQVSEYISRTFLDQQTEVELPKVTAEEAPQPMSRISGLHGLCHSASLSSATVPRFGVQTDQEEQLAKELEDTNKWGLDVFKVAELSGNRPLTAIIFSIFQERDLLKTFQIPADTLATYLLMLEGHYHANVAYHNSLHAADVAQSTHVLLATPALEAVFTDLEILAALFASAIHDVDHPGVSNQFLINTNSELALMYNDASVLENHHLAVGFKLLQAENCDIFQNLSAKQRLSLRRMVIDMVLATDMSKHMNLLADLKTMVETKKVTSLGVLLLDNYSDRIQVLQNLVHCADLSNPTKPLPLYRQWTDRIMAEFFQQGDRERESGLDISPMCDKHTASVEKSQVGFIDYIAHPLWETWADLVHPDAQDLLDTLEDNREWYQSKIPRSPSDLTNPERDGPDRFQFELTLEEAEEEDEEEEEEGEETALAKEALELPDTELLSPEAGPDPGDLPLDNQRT

[4] = target: T1, 3',5'-cyclic-AMP phosphodiesterase 4D (Homo sapiens, UniProt Q08499); assay: Inhibition of human recombinant PDE4D3 using FAM-cAMP as substrate at 10 uM measured after 1 hr by IMAP TR-FRET assay
T1 sequence (Q08499 whole entry): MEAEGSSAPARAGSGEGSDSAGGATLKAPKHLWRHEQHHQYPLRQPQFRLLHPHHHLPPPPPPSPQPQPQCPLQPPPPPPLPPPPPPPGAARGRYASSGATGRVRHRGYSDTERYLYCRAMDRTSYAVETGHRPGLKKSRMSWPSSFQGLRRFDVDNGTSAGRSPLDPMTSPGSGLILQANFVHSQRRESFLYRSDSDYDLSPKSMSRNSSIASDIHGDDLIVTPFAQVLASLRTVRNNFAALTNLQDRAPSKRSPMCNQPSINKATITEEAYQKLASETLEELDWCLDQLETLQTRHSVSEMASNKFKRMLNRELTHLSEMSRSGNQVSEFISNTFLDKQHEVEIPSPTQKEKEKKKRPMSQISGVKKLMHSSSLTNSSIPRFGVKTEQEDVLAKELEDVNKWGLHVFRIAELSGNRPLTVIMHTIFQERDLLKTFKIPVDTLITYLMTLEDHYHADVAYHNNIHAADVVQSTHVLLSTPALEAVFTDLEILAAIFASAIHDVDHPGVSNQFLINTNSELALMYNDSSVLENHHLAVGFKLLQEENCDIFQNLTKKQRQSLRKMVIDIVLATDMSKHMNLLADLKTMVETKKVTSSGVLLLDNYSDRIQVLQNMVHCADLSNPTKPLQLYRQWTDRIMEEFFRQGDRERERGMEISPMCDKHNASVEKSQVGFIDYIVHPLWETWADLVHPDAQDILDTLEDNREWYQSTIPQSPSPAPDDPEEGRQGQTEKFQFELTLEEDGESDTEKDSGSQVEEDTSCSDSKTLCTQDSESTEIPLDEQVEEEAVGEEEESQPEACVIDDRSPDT

[5] = Chemical stability of the compound in KCl/HCl buffer at pH 2.0 measured upto 120 mins by HPLC-DAD analysis; settings: pH 2, 2 h
[6] = target: 3',5'-cyclic-AMP phosphodiesterase 4B (Homo sapiens, UniProt Q07343); assay: Inhibition of human recombinant PDE4B1 using FAM-cAMP as substrate at 10 uM measured after 1 hr by IMAP TR-FRET assay
Chain of 3',5'-cyclic-AMP phosphodiesterase 4B (Q07343 whole entry): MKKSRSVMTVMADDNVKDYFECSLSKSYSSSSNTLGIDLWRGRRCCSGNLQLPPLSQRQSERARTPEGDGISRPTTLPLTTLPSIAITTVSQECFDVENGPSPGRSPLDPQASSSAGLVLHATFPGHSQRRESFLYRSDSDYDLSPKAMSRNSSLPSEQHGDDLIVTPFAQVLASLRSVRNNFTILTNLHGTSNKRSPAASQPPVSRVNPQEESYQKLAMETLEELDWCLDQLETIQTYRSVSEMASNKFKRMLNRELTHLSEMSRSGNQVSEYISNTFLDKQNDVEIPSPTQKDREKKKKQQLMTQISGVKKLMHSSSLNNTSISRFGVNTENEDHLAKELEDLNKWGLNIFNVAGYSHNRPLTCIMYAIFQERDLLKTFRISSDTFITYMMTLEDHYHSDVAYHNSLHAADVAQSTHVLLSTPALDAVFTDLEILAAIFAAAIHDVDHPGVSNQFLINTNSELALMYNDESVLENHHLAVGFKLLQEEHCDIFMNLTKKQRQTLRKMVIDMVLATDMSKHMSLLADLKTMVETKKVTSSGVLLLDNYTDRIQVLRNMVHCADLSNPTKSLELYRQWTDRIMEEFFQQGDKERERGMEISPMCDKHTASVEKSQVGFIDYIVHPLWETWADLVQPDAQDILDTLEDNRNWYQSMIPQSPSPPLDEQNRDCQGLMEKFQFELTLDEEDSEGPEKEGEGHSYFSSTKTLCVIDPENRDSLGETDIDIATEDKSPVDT

[7] = pampa, 8 h
in vitro [8] = settings: PAMPA
in vitro [9] = settings: PAMPA; remark: listed apart in the source
Description: Permeability of the compound by PAMPA-TGI assay

Mus musculus [10] = assay: Antiinflammatory activity against A/J mouse assessed as decrease in LPS-induced TNFalpha production in lungs at 6.25 umol/kg, po treated via gavage for 1 hr before LPS stimulation and measured after 24 hrs by ELISA relative to control; format: functional; settings: 25 h
[11] = target: T1, 3',5'-cyclic-AMP phosphodiesterase 4D; assay: Inhibition of human recombinant PDE4D3 using FAM-cAMP as substrate measured after 1 hr by IMAP TR-FRET assay
[12] = target: T1, 3',5'-cyclic-AMP phosphodiesterase 4D; assay: Inhibition of human recombinant PDE4D3 using FAM-cAMP as substrate measured after 1 hr by IMAP TR-FRET assay relative to control
Mus musculus [13] = assay: Antiinflammatory activity against A/J mouse assessed as decrease in LPS-induced airway hyperreactivity at 25 umol/kg, po treated via gavage for 1 hr before LPS stimulation measured after 24 hrs by whole body plethysmography relative to control; format: functional; settings: 25 h
Mus musculus [14] = assay: Antiinflammatory activity against A/J mouse assessed as decrease in LPS-induced airway hyperreactivity at 6.25 umol/kg, po treated via gavage for 1 hr before LPS stimulation measured after 24 hrs by whole body plethysmography relative to control; format: functional; settings: 25 h
Mus musculus [15] = assay: Antiinflammatory activity against A/J mouse assessed as decrease in LPS-induced TNFalpha production in lungs at 25 umol/kg, po treated via gavage for 1 hr before LPS stimulation and measured after 24 hrs by ELISA relative to control; format: functional; settings: 25 h
Homo sapiens [16] = organism: Homo sapiens; assay: Inhibition of human recombinant PDE4A1A using FAM-cAMP as substrate measured after 1 hr by IMAP TR-FRET assay relative to control
[17] = Inhibition of human recombinant PDE4A1A using FAM-cAMP as substrate measured after 1 hr by IMAP TR-FRET assay
Trachea [18] = assay: […] activity in non-sensitized guinea pig-derived trachea assessed as decrease in CCh-induced tracheal tonic contraction in presence of functional epithelium; format: tissue-based; settings: Cavia porcellus
in vitro [19] = settings: PAMPA; remark: listed apart in the source
Description: Permeability of the compound incubated for 165 mins by PAMPA-BBB assay

Trachea [20] = assay: […] activity in OVA-sensitized guinea pig-derived trachea assessed as decrease in CCh-induced tracheal tonic contraction in presence of functional epithelium treated with compound after contraction stabilised; format: tissue-based; settings: Cavia porcellus
Trachea [21] = assay: […] activity in OVA-sensitized guinea pig-derived trachea assessed as decrease in CCh-induced tracheal tonic contraction in absence of functional epithelium treated with compound after contraction stabilised; format: tissue-based; settings: Cavia porcellus
Trachea [22] = assay: […] activity in non-sensitized guinea pig-derived trachea assessed as decrease in CCh-induced tracheal tonic contraction in absence of functional epithelium treated with compound after contraction stabilised; format: tissue-based; settings: Cavia porcellus

| inhibition (Homo sapiens [1]) [%] | Stabilty [2] | inhibition [3] [%] | inhibition [4] [%] | Stabilty [5] | inhibition [6] [%] | SMILES | also measured |
| --- | --- | --- | --- | --- | --- | --- | --- |
| 11.3 | Stable | 26 | 13.6 | Stable | < 5 | COc1ccc(CCNS(=O)(=O)c2ccc(OC)c(OC)c2)cc1OC |  |
|  |  |  |  |  |  | CC(=O)Oc1ccccc1C(=O)O [ASPIRIN] | Drug absorption [7]: 47.36%; Papp at 8 h (in vitro [8]): 1.69 ×10⁻⁶ cm/s; Papp (in vitro [9]): 3.8 ×10⁻⁶ cm/s |
| 46.8 | Stable | 26.6 | 56.3 | Stable | 7.1 | COc1ccc(CCN(C)S(=O)(=O)c2ccc(-c3ccccc3)cc2)cc1OC | inhibition in vivo at 6.25 µmol/kg (Mus musculus [10]): 22.2%; IC50 [11]: 20.8 µM; Emax [12]: 60%; inhibition in vivo at 25 µmol/kg (Mus musculus [13]): 80%; inhibition in vivo at 6.25 µmol/kg (Mus musculus [14]): 95%; inhibition in vivo at 25 µmol/kg (Mus musculus [15]): 55.1%; Emax (Homo sapiens [16]): 65% |
| 89.9 | Stable | 30.1 | 50.1 | Stable | 12.2 | COc1ccc(CCN(C)S(=O)(=O)c2ccc3ccccc3c2)cc1OC | inhibition in vivo at 6.25 µmol/kg (Mus musculus [10]): 0%; IC50 [11]: 35.3 µM; Emax [12]: 63%; inhibition in vivo at 25 µmol/kg (Mus musculus [13]): 97%; inhibition in vivo at 6.25 µmol/kg (Mus musculus [14]): 95%; IC50 [17]: 3 µM; inhibition in vivo at 25 µmol/kg (Mus musculus [15]): 58.9%; Emax (Homo sapiens [16]): 97% |
| < 5 | Stable | < 5 | < 5 | Stable | 13.8 | COc1ccc(CCNS(=O)(=O)c2ccc([N+](=O)[O-])cc2)cc1OC |  |
|  |  |  |  |  |  | CC(=O)N1CCN(c2ccc(OCC3COC(Cn4ccnc4)(c4ccc(Cl)cc4Cl)O3)cc2)CC1 (configuration not stated) [KETOCONAZOLE] | Drug absorption [7]: 84.68%; Papp at 8 h (in vitro [8]): 4.93 ×10⁻⁶ cm/s; Papp (in vitro [9]): 3.3 ×10⁻⁶ cm/s |
| 35.2 | Stable | 40.2 | 20.2 | Unstable | < 5 | COc1ccc(S(=O)(=O)N/N=C/c2ccc(OC)c(OC)c2)cc1 |  |
| 11 | Stable | 20.7 | 23.8 | Stable | < 5 | COc1ccc(S(=O)(=O)NCCc2ccc(OC)c(OC)c2)cc1 |  |
| 11.8 | Stable | 21.3 | < 5 | Stable | < 5 | COc1ccc(CCNS(=O)(=O)c2cc3c(cc2C)OCO3)cc1OC | EC50 (Trachea [18]): 29.5 µM; Papp at 2.75 h (in vitro [19]): 3.46 ×10⁻⁶ cm/s; EC50 (Trachea [20]): 24.5 µM; EC50 (Trachea [21]): 25.1 µM; IC50 [17]: 0.7 µM; EC50 (Trachea [22]): 43.7 µM |
|  |  |  |  |  |  | O=c1ccc2ccccc2o1 [COUMARIN] | Drug absorption [7]: 99.98%; Papp at 8 h (in vitro [8]): 22.6 ×10⁻⁶ cm/s |
| 6.1 | Stable | < 5 | < 5 | Stable | < 5 | COc1ccc(CCNS(=O)(=O)c2ccccc2C)cc1OC |  |
|  |  |  |  |  |  | O=C(Nc1c(Cl)cncc1Cl)c1ccc(OC(F)F)c(OCC2CC2)c1 [ROFLUMILAST] | Papp at 2.75 h (in vitro [19]): 8.05 ×10⁻⁶ cm/s; Drug absorption [7]: 86.58%; Papp at 8 h (in vitro [8]): 5.28 ×10⁻⁶ cm/s |
| 8 | Stable | 19.5 | 15.9 | Unstable | < 5 | COc1ccc(/C=N/NS(=O)(=O)c2ccccc2C)cc1OC |  |
| < 5 | Stable | < 5 | 8.8 | Unstable | < 5 | COc1ccc(/C=N/NS(=O)(=O)c2cc3c(cc2C)OCO3)cc1OC |  |
| 31.5 | Stable | 43 | 12.8 | Unstable | < 5 | COc1ccc(S(=O)(=O)N(C)/N=C/c2ccc(OC)c(OC)c2)cc1 |  |
| 25.9 | Stable | < 5 | 27.6 | Stable | 26.5 | COc1ccc(CCN(C)S(=O)(=O)c2ccccc2C)cc1OC |  |

| inhibition (Homo sapiens [1]) [%] | Stabilty [2] | inhibition [3] [%] | inhibition [4] [%] | Stabilty [5] | inhibition [6] [%] | SMILES | also measured |
| --- | --- | --- | --- | --- | --- | --- | --- |
| 30.4 | Stable | 12.1 | 9.1 | Stable | < 5 | COc1ccc(CCNS(=O)(=O)c2ccc3ccccc3c2)cc1OC |  |
| 11.9 | Stable | 14.6 | < 5 | Unstable | < 5 | COc1ccc(/C=N/NS(=O)(=O)c2ccccc2)cc1OC |  |
|  |  |  |  |  |  | C[C@]12C=CC(=O)C=C1CC[C@@H]1[C@@H]2C(=O)C[C@@]2(C)[C@H]1CC[C@]2(O)C(=O)CO [PREDNISONE] | Papp at 8 h (in vitro [8]): 3.09 ×10⁻⁶ cm/s |
| 14.8 | Stable | < 5 | 10.8 | Stable | < 5 | COc1ccc(CCNS(=O)(=O)c2ccc(-c3ccccc3)cc2)cc1OC |  |
|  |  |  |  |  |  | COc1ccc(C2CNC(=O)C2)cc1OC1CCCC1 (configuration not stated) [ROLIPRAM] | EC50 (Trachea [18]): 0.0263 µM; EC50 (Trachea [20]): 0.0316 µM; EC50 (Trachea [21]): 0.0692 µM; EC50 (Trachea [22]): 0.0646 µM |
|  |  |  |  |  |  | O=C(O)c1cc(/N=N/c2ccc(S(=O)(=O)Nc3ccccn3)cc2)ccc1O [SULFASALAZINE] | Papp at 8 h (in vitro [8]): 0.45 ×10⁻⁶ cm/s; Papp (in vitro [9]): 0.3 ×10⁻⁶ cm/s |
|  |  |  |  |  |  | O=C(O)Cc1ccccc1Nc1c(Cl)cccc1Cl [DICLOFENAC] | Drug absorption [7]: 99.28% |
| 36.1 | Stable | 16.4 | 31.1 | Stable | 12 | COc1ccc(CCN(C)S(=O)(=O)c2ccc(OC)c(OC)c2)cc1OC |  |
|  |  |  |  |  |  | Nc1nc2c(ncn2COCCO)c(=O)[nH]1 [ACYCLOVIR] | Papp at 8 h (in vitro [8]): 0.08 ×10⁻⁶ cm/s |
|  |  |  |  |  |  | CNC(=C[N+](=O)[O-])NCCSCc1ccc(CN(C)C)o1 [RANITIDINE] | Drug absorption [7]: 13.48% |
| < 5 | Stable | 19 | < 5 | Stable | < 5 | COc1ccc(CCN(C)S(=O)(=O)c2ccc([N+](=O)[O-])cc2)cc1OC |  |
| 90.4 | Stable | 25.5 | 90.7 | Unstable | 22.7 | COc1ccc(/C=N/N(C)S(=O)(=O)c2cc3c(cc2C)OCO3)cc1OC | EC50 (Trachea [18]): 8.32 µM; inhibition in vivo at 6.25 µmol/kg (Mus musculus [10]): 48.7%; EC50 (Trachea [20]): 6.46 µM; IC50 [11]: 0.7 µM; EC50 (Trachea [21]): 3.16 µM; Emax [12]: 93%; inhibition in vivo at 25 µmol/kg (Mus musculus [13]): 97%; Drug absorption [7]: 99.3%; Papp at 8 h (in vitro [8]): 13.1 ×10⁻⁶ cm/s; inhibition in vivo at 6.25 µmol/kg (Mus musculus [14]): 99%; IC50 [17]: 0.5 µM; inhibition in vivo at 25 µmol/kg (Mus musculus [15]): 85.9%; EC50 (Trachea [22]): 8.13 µM; Emax (Homo sapiens [16]): 100% |
| 43 | Stable | 23.5 | 35.6 | Stable | 33 | COc1ccc(S(=O)(=O)N(C)CCc2ccc(OC)c(OC)c2)cc1 |  |
| < 5 | Stable | 29 | 19.7 | Unstable | < 5 | COc1ccc(/C=N/NS(=O)(=O)c2ccc(C(F)(F)F)cc2)cc1OC |  |
| 16.2 | Stable | 39.3 | 26.1 | Unstable | < 5 | COc1ccc(/C=N/N(C)S(=O)(=O)c2ccccc2C)cc1OC |  |
